Measured values as given in US20260076973A1 (priority 2023, published 2026).
Where a name gives a salt, the structure may show the parent alone. Read-outs that look alike come from different tables or passages of the source.

Test system: SARS-CoV-2(delta variant)
Test: microbe, parasite or virus in culture
Type: cell-based
[1] = Severe acute respiratory syndrome coronavirus 2, Vero C1008, read-out: IC50
[2] = Severe acute respiratory syndrome coronavirus 2, Vero C1008, read-out: IC90
[3] = Severe acute respiratory syndrome coronavirus 2, Vero C1008

Compound | IC50 [1] | IC90 [2] | further results
CC(=O)Nc1ccc(Nc2nc(Nc3ccc(C)c(C)c3)nc(N3CCOCC3)n2)cc1 [VIRADEM-11918, N-{4-[4-(3,4-Dimethylphenylamino)-6-morpholin-4-yl-[1,3,5]triazin-2-ylamino]phenyl}-acetamide] | 0.041 µM | 0.06 µM | –
COc1cccc(NC2N=C(N)N=C(N3CCOCC3)N2c2ccccc2)c1 (stereo not shown) [VIRADEM-12252, N-(3-Methoxyphenyl)-6-morpholin-4-yl-N^1-phenyl-[1,3,5]triazine-2,4-diamine hydrochloride] | 0.357 µM | 0.425 µM | –
COC(=O)c1ccc(Nc2nc(Nc3cccc(OC)c3)nc(N3CCOCC3)n2)cc1 [VIRADEM-12329, 4-[4-(3-Methoxyphenylamino)-6-morpholin-4-yl-[1,3,5]triazin-2-ylamino]-benzoic acid methyl ester] | 0.368 µM | 0.465 µM | –
Cc1cccc(N2C(N3CCOCC3)=NC(N)=NC2Nc2cccc(Cl)c2)c1 (stereo not shown) [VIRADEM-11781, N-(3-Chlorophenyl)-6-morpholin-4-yl-N^1-m-tolyl-[1,3,5]triazine-2,4-diamine hydrochloride] | 1.28 µM | 1.37 µM | –
Cc1ccc(Nc2nc(N3CCOCC3)nc(N3CCCc4ccccc43)n2)cc1C [VIRADEM-15278, [4-(3,4-Dihydro-2-H-quinolin-1-yl)-6-morpholin-4-yl-[1,3,5]triazin-2-yl]-(3,4-dimethylphenyl)-amine] | – | – | IC50 (read-out: IC50): 0.194 µM; IC90 (read-out: IC90): 0.388 µM
COc1ccc(Nc2nc(Nc3cccc(C)c3)nc(N3CCOCC3)n2)cc1 [hydrochloride] | – | – | IC50 [3]: 0.338 µM; IC90 [3]: 0.356 µM
Cc1ccc(Nc2nc(Nc3cccc(C(F)(F)F)c3)nc(N3CCOCC3)n2)cc1C [VIRADEM-11914, N-(3,4-Dimethylphenyl)-6-morpholin-4-yl-N^1-(3-trifluoromethylphenyl)-[1,3,5]triazine-2,4-diamine] | 0.382 µM | 0.437 µM | –
CC(=O)c1cccc(Nc2nc(Nc3ccccc3)nc(N3CCOCC3)n2)c1 [VIRADEM-12125, 1-[3-(4-Morpholin-4-yl-6-phenylamino-[1,3,5]triazin-2-ylamino)-phenyl]-ethanone hydrochloride] | 0.584 µM | 1.37 µM | –
CCOC(=O)c1ccc(Nc2nc(Nc3cc(C)cc(C)c3)nc(N3CCOCC3)n2)cc1 [VIRADEM-11934, 4-[4-(3,5-Dimethylphenylamino)-6-morpholin-4-yl-[1,3,5]-2-ylamino]-benzoic acid ethyl ester] | – | – | IC50 (read-out: IC50): 1.02 µM; IC90 (read-out: IC90): 1.24 µM
CC(=O)Nc1ccc(Nc2nc(Nc3ccc(Cl)cc3)nc(N3CCOCC3)n2)cc1 [VIRADEM-11847, N-{4-[4-(4-Chlorophenylamino)-6-morpholin-4-yl-[1,3,5]triazin-2-ylamino]-phenyl}-acetamide] | 0.036 µM | 0.046 µM | –
Cc1cccc(Nc2nc(Nc3ccc(C(C)C)cc3)nc(N3CCOCC3)n2)c1 [VIRADEM-12251, N-(4-Isoproylphenyl)-6-morpholin-4-yl-N^1-m-tolyl-[1,3,5]triazine-2,4-diamine hydrochloride] | – | – | IC50 (read-out: IC50): 0.951 µM; IC90 (read-out: IC90): 1.17 µM
CCOc1ccc(NC2N=C(N)N=C(N3CCOCC3)N2c2cccc(C)c2)cc1 (stereo not shown) [VIRADEM-11794, N-(4-Ethoxyphenyl)-6-morpholin-4-yl-N^1-m-tolyl-[1,3,5]triazine-2,4-diamine hydrochloride] | 0.545 µM | 0.855 µM | –
CC(=O)c1cccc(Nc2nc(Nc3ccc(Cl)cc3)nc(N3CCOCC3)n2)c1 [VIRADEM-11882, 1-{3-[4-(4-chlorophenylamino)-6-morpholin-4-yl-[1,3,5]triazin-2-ylamino]-phenyl}-ethanone] | 0.47 µM | 0.635 µM | –
Cc1ccc(N2C(N3CCOCC3)=NC(N)=NC2Nc2cccc(F)c2)cc1 (stereo not shown) [VIRADEM-11785, N-(3-Fluorophenyl)-6-morpholin-4-yl-N^1-p-tolyl-[1,3,5]triazine-2,4-diamine hydrochloride] | 0.559 µM | 0.69 µM | –
CCOC(=O)c1ccc(Nc2nc(Nc3ccc(C)c(C)c3)nc(N3CCOCC3)n2)cc1 [VIRADEM-11913, 4-[4-(3,4-Dimethylphenylamino)-6-morpholin-4-yl-[1,3,5]-2-ylamino]-benzoic acid ethyl ester] | – | – | IC50 (read-out: IC50): 0.245 µM; IC90 (read-out: IC90): 0.331 µM
CCOC(=O)c1ccc(Nc2nc(Nc3ccc(C)cc3)nc(N3CCOCC3)n2)cc1 [VIRADEM-11916, 4-(4-Morpholin-4-yl-6-p-tolylamino[1,3,5]-2-ylamino)-benzoic acid ethyl ester] | – | – | IC50 (read-out: IC50): 0.559 µM; IC90 (read-out: IC90): 0.707 µM
Cc1ccc(Nc2nc(N3CCOCC3)nc(N3CCOCC3)n2)cc1C [VIRADEM-10884, (3,4-dimethylphenyl)-(4,6-dimorpholin-4-yl-[1,3,5]triazin-2-yl)-amine] | 0.389 µM | 0.477 µM | –
CCOC(=O)c1ccc(Nc2nc(Nc3ccc(F)cc3)nc(N3CCOCC3)n2)cc1 [VIRADEM-11660, 4-[4-(4-Fluorophenylamino)-6-morpholin-4-yl-[1,3,5]triazin-2-ylamino]benzoic acid ethyl ester] | 1.86 µM | > 3 µM | –
Cc1cccc(N2C(N3CCOCC3)=NC(N)=NC2Nc2cccc(F)c2)c1 (stereo not shown) [VIRADEM-11786, N-(3-Fluorophenyl)-6-morpholin-4-yl-N^1-m-tolyl-[1,3,5]triazine-2,4-diamine hydrochloride] | 0.371 µM | 0.396 µM | –
Cc1ccc(Nc2nc(Nc3ccc(C)c(C)c3)nc(N3CCOCC3)n2)cc1 [VIRADEM-11141] | 0.125 µM | 0.15 µM | –
Cc1cccc(N2C(N3CCOCC3)=NC(N)=NC2Nc2ccc(F)cc2)c1 (stereo not shown) [VIRADEM-11787, N-(4-Fluorophenyl)-6-morpholin-4-yl-N^1-m-tolyl-[1,3,5]triazine-2,4-diamine hydrochloride] | 0.404 µM | 0.446 µM | –
Cc1cccc(N2C(N3CCOCC3)=NC(N)=NC2Nc2ccc(Cl)cc2)c1 (stereo not shown) [VIRADEM-11680, N-(4-Chlorophenyl)-6-morpholin-4-yl-N^1-m-tolyl-[1,3,5]triazine-2,4-diamine hydrochloride] | 0.428 µM | 0.521 µM | –
Cc1ccc(Nc2nc(N3CCCCCC3)nc(N3CCOCC3)n2)cc1 [VIRADEM-15229, (4-Azepan-1-yl-6-morpholin-4-yl-[1,3,5]triazin-2-yl)-p-tolyl-amine] | 1.03 µM | 1.19 µM | –
